Results from PubChem BioAssay AID1259411 (Chemical Carcinogenesis Research Information System (CCRIS), 2018).
The source made the active and inactive calls. No rule for the calls is given here.

System: rodent carcinogenicity bioassays, tumor incidence
Assay: CCRIS carcinogenicity studies
Outline: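 Archive of carcinogenicity, mutagenicity, tumor promotion and tumor inhibition results drawn from journals, NCI reports and other sources, expert-reviewed; covers 1985-2011 and is no longer updated.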

With `Nc1ccc(Sc2ccc(N)cc2)cc1` the carcinogen call (Species: MOUSE, Strain/Sex: B6C3F1/FEMALE, Route: ORAL, Dose: 0, 2500, 5000 PPM IN DIET, Dose: 0, 2500, 5000 PPM IN DIET, Tumor Site: Type of Lesion: LIVER: HEPATOCELLULAR CARCINOMA, THYROID GLAND: FOLLICULAR CELL ADENOMA OR CARCINOMA) was “active; positive”, the carcinogen call (Species: MOUSE, Strain/Sex: B6C3F1/MALE, Route: ORAL, Dose: 0, 2500, 5000 PPM IN DIET, Dose: 0, 2500, 5000 PPM IN DIET, Tumor Site: Type of Lesion: LIVER: HEPATOCELLULAR ADENOMA OR CARCINOMA, THYROID GLAND: FOLLICULAR CELL ADENOMA OR CARCINOMA) was “active; positive” and the carcinogen call (Species: RAT, Strain/Sex: F344/FEMALE, Route: ORAL, Dose: 0, 1500, 3000 PPM IN DIET, Dose: 0, 1500, 3000 PPM IN DIET, Tumor Site: Type of Lesion: THYROID GLAND: FOLLICULAR CELL CARCINOMA, UTERUS: ADENOCARCINOMA, NOS) was “active; positive”. For the same compound, the carcinogen call (Species: RAT, Strain/Sex: F344/MALE, Route: ORAL, Dose: 0, 1500, 3000 PPM IN DIET (68-72 WEEKS), Dose: 0, 1500, 3000 PPM IN DIET (68-72 WEEKS), Tumor Site: Type of Lesion: LIVER: HEPATOCELLULAR ADENOMA OR CARCINOMA, COLON: ADENOCARCINOMA, NOS, THYROID GLAND: FOLLICULAR CELL ADENOMA OR CARCIN, Tumor Site: Type of Lesion: LIVER: HEPATOCELLULAR ADENOMA OR CARCINOMA, COLON: ADENOCARCINOMA, NOS, THYROID GLAND: FOLLICULAR CELL ADENOMA OR CARCIN) was “active; positive”.
In the case of `C=COc1ccc([N+](=O)[O-])cc1`, the carcinogen call (Species: MOUSE, Strain/Sex: B6C3F1/MALE, Route: INTRAPERITONEAL, Dose: 0, 60, 300 NMOL/G BW IN 10 µL TRIOCTANOIN ONCE (STUDY DURATION: 10 MO), Dose: 0, 60, 300 NMOL/G BW IN 10 µL TRIOCTANOIN ONCE (STUDY DURATION: 10 MO), Tumor Site: Type of Lesion: LIVER: HEPATOMA) is reported as “active; positive”.
`CC1(C)[C@H](C(=O)O[C@H](C#N)c2cccc(Oc3ccccc3)c2)[C@@H]1C(Br)C(Br)(Br)Br` (stereo partly drawn) was tested, and the carcinogen call (Species: Mouse, Strain/Sex: Not reported by DPR/Female (60-80/Group), Route: Gavage, Dose: 0, 0.75, 3.0, 10.0 mg/kg/day in corn oil for 104 wk, Dose: 0, 0.75, 3.0, 10.0 mg/kg/day in corn oil for 104 wk) was “inactive; negative”, the carcinogen call (Species: Mouse, Strain/Sex: Not reported by DPR/Male (60-80/Group), Route: Gavage, Dose: 0, 0.75, 3.0, 10.0 mg/kg/day in corn oil for 104 wk, Dose: 0, 0.75, 3.0, 10.0 mg/kg/day in corn oil for 104 wk) was “inactive; negative” and the carcinogen call (Species: Rat, Strain/Sex: Not reported by DPR/Female (60-80/Group), Route: Gavage, Dose: 0, 0.75, 3.0, 12.0 mg/kg/day in corn oil for 104 wk, Dose: 0, 0.75, 3.0, 12.0 mg/kg/day in corn oil for 104 wk) was “inactive; negative”. The carcinogen call (Species: Rat, Strain/Sex: Not reported by DPR/Male (60-80/Group), Route: Gavage, Dose: 0, 0.75, 3.0, 12.0 mg/kg/day in corn oil for 104 wk, Dose: 0, 0.75, 3.0, 12.0 mg/kg/day in corn oil for 104 wk) was “inactive; negative”.
With `CCN(CC)C(=O)c1cccc(C)c1` the carcinogen call (Species: DOG, Strain/Sex: BEAGLE/FEMALE, Route: ORAL, Dose: 0, 30, 100, 400 MG/KG/D IN DIET FOR 52 WK (STUDY DURATION: 52 WK), Dose: 0, 30, 100, 400 MG/KG/D IN DIET FOR 52 WK (STUDY DURATION: 52 WK)) was “inactive; negative”, the carcinogen call (Species: DOG, Strain/Sex: BEAGLE/MALE, Route: ORAL, Dose: 0, 30, 100, 400 MG/KG/D IN DIET FOR 52 WK (STUDY DURATION: 52 WK), Dose: 0, 30, 100, 400 MG/KG/D IN DIET FOR 52 WK (STUDY DURATION: 52 WK)) was “inactive; negative” and the carcinogen call (Species: MOUSE, Strain/Sex: CD-1/MALE, Route: ORAL, Dose: 0, 250, 500, 1000 MG/KG/D IN DIET FOR 78 WK (STUDY DURATION: 78 WK), Dose: 0, 250, 500, 1000 MG/KG/D IN DIET FOR 78 WK (STUDY DURATION: 78 WK)) was “inactive; negative”. The carcinogen call (Species: Mouse, Strain/Sex: CD-1/Female (60/Group), Route: Oral, Dose: 0, 250, 500, 1000 mg/kg in diet for 78 wk, Dose: 0, 250, 500, 1000 mg/kg in diet for 78 wk) was “inactive; negative”, the carcinogen call (Species: Mouse, Strain/Sex: CD-1/Male (60/Group), Route: Oral, Dose: 0, 250, 500, 1000 mg/kg in diet for 78 wk, Dose: 0, 250, 500, 1000 mg/kg in diet for 78 wk) was “inactive; negative” and the carcinogen call (Species: RAT, Strain/Sex: CD-1/FEMALE, Route: ORAL, Dose: 0, 250, 500, 1000 MG/KG/D IN DIET FOR 78 WK (STUDY DURATION: 78 WK), Dose: 0, 250, 500, 1000 MG/KG/D IN DIET FOR 78 WK (STUDY DURATION: 78 WK)) was “inactive; negative”. The carcinogen call (Species: RAT, Strain/Sex: CD/FEMALE, Route: ORAL, Dose: 0, 30, 100, 400 MG/KG/D IN DIET FOR 104 WK (STUDY DURATION: 104 WK), Dose: 0, 30, 100, 400 MG/KG/D IN DIET FOR 104 WK (STUDY DURATION: 104 WK)) was “inactive; negative”, the carcinogen call (Species: RAT, Strain/Sex: CD/MALE, Route: ORAL, Dose: 0, 10, 30, 100 MG/KG/D IN DIET FOR 104 WK (STUDY DURATION: 104 WK), Dose: 0, 10, 30, 100 MG/KG/D IN DIET FOR 104 WK (STUDY DURATION: 104 WK)) was “inactive; negative” and the carcinogen call (Species: Rat, Strain/Sex: Charles River CD/Female (60/Group), Route: Oral, Dose: 0, 10, 30, 100 mg/kg in diet for 2 yr, Dose: 0, 10, 30, 100 mg/kg in diet for 2 yr) was “inactive; negative”. For the same compound, the carcinogen call (Species: Rat, Strain/Sex: Charles River CD/Male (60/Group), Route: Oral, Dose: 0, 10, 30, 100 mg/kg in diet for 2 yr, Dose: 0, 10, 30, 100 mg/kg in diet for 2 yr) was “inactive; negative”.
`O=[N+]([O-])c1ccc(-c2ccccc2)cc1` was tested, and the carcinogen call (Species: DOG, Strain/Sex: MONGREL/FEMALE, Route: ORAL, Dose: 300 MG 3/WK FOR LIFE, Tumor Site: Type of Lesion: URINARY BLADDER: EPITHELIAL CARCINOMA) was “active; positive”, the carcinogen call (Species: RAT, Strain/Sex: SPRAGUE-DAWLEY/FEMALE, Route: SUBCUTANEOUS, Dose: 0, 50, 100 UMOL/KG IN DMSO 1/WK FOR 8 WK (STUDY DURATION: 62 WK), Dose: 0, 50, 100 UMOL/KG IN DMSO 1/WK FOR 8 WK (STUDY DURATION: 62 WK)) was “inactive; negative” and the carcinogen call (Species: RAT, Strain/Sex: SPRAGUE-DAWLEY/MALE, Route: SUBCUTANEOUS, Dose: 0, 50, 100 UMOL/KG IN DMSO 1/WK FOR 8 WK (STUDY DURATION: 62 WK), Dose: 0, 50, 100 UMOL/KG IN DMSO 1/WK FOR 8 WK (STUDY DURATION: 62 WK)) was “inactive; negative”.
With `O=C(O)CN(CCN(CC(=O)O)CC(=O)O)CC(=O)O` the carcinogen call (Species: MOUSE, Strain/Sex: B6C3F1/FEMALE, Route: ORAL, Dose: 0, 3750, 7500 PPM IN DIET, Dose: 0, 3750, 7500 PPM IN DIET) was “inactive; negative”, the carcinogen call (Species: MOUSE, Strain/Sex: B6C3F1/MALE, Route: ORAL, Dose: 0, 3750, 7500 PPM IN DIET, Dose: 0, 3750, 7500 PPM IN DIET) was “inactive; negative” and the carcinogen call (Species: RAT, Strain/Sex: F344/FEMALE, Route: ORAL, Dose: 0, 3750, 7500 PPM IN DIET, Dose: 0, 3750, 7500 PPM IN DIET) was “inactive; negative”. For the same compound, the carcinogen call (Species: RAT, Strain/Sex: F344/MALE, Route: ORAL, Dose: 0, 3750, 7500 PPM IN DIET, Dose: 0, 3750, 7500 PPM IN DIET) was “inactive; negative”.
In the case of `C=C(F)F`, the carcinogen call (Species: RAT, Strain/Sex: SPRAGUE-DAWLEY/FEMALE, Route: GAVAGE, Dose: 0, 4.12, 8.25 MG/KG BW IN OLIVE OIL 1/D 4-5 D/WK FOR 52 WK (STUDY DURATION: LIFETIME), Dose: 0, 4.12, 8.25 MG/KG BW IN OLIVE OIL 1/D 4-5 D/WK FOR 52 WK (STUDY DURATION: LIFETIME), Tumor Site: Type of Lesion: [BRAIN WAS ONLY SITE EVALUATED]) is reported as “inactive; negative” and the carcinogen call (Species: RAT, Strain/Sex: SPRAGUE-DAWLEY/MALE, Route: GAVAGE, Dose: 0, 4.12, 8.25 MG/KG BW IN OLIVE OIL 1/D 4-5 D/WK FOR 52 WK (STUDY DURATION: LIFETIME), Dose: 0, 4.12, 8.25 MG/KG BW IN OLIVE OIL 1/D 4-5 D/WK FOR 52 WK (STUDY DURATION: LIFETIME), Tumor Site: Type of Lesion: [BRAIN WAS ONLY SITE EVALUATED]) is reported as “inactive; negative”.
